In PMC9016807, “Metabolic, Pharmacokinetic, and Activity Profile of the Liver Stage Antimalarial (RC-12)” (ACS Omega, 2022):
pIC50: −log10 of the molar value. Entries after “also recorded” stand apart in the source; their conditions may differ. Where two headings read alike, the source gives them in different places.

How the values were obtained:
[1] = system: P. vivax liver-stage parasites; assay: P. vivax liver-stage in vitro assay, prophylactic mode; assay type: cell-based, Plasmodium vivax
Procedure: (§1) Compound 1 and its metabolites were tested in both prophylactic and radical cure modes for activity against P. vivax liver-stage parasites.[16],[17] In the prophylactic assay, compounds are added the day after sporozoite invasion into hepatocytes in order to characterize the compound activity against established liver forms with a parasitophorous vacuole membrane (as opposed to activity on preinvasion sporozoites) and prior to complete maturation of hypnozoites into drug-insensitive dormant forms, which appear at about 5 days postinvasion.[18] In the radical cure assay, compounds are added at day 5 postinfection to characterize activity against late-stage schizonts and mature PI4K inhibitor-insensitive hypnozoites.[19] In these experiments, the threshold for activity is 75% inhibition. […] Similarly, as previously described,[20] 10 μM concentrations of 1 and its metabolites were also tested for activity against P. cynomolgi schizont (large forms) and hypnozoite (small forms) liver-stage parasites cultured in rhesus monkey hepatocytes. In these experiments, the threshold for activity is 50% inhibition.
(§2) Compounds were prepared as 20 mM stock solutions in DMSO and tested in an eight-point semilog (1/3) dilution series from 20 μM in 384-well assay plates in both prophylactic and radical cure mode against P. vivax liver-stage parasites as previously described.[16] Following ethical approval from the Institutional Ethics Committee of the Thai Ministry of Public Health, the Ethical Review Committee of Faculty of Tropical Medicine, Mahidol University (TMEC 11-008 and 14-016), the Oxford Tropical Medicine Ethical Committee, Oxford University, England (OxTREC 17-11 and 40–14), and the Cambodian National Ethics Committee for Health Research (101NECHR), isolates of P. vivax infected blood were collected from patent volunteers in Tak province, Thailandm and Mondulkiri province, Cambodia. Samples were collected by venipuncture into heparin tubes prior to replacement of patient serum with nonimmune AB human serum and feeding to laboratory-reared Anopheles dirus cracens or An. dirus A mosquitoes via water-jacket artificial membrane feeders or the Hemotek insect feeding system (Hemotek, Blackburn, UK) set to maintain the bloodmeal temperature at 37 °C. […] Cryopreserved human hepatocytes (BioIVT, Baltimore, Maryland, USA) were thawed into InVitroGro CP Medium (BioIVT), quantified for viability by trypan blue dye exclusion, diluted to 800–1000 live cells per microliter, and 18000 live cells were plated into each well of a collagen-coated 384-well plate (Greiner, Monroe, NC, USA) by a 16-channel pipet (Finnpipette, Thermo Fisher Scientific, Waltham, MA). […]

[2] = Metabolism in human liver microsomes; assay type: in vitro ADME; conditions: 0.4 mg/mL protein; for microsomal CLint at 1 μM: human, liver microsomes, read-out: CLint of authentic metabolite incubated; for average individual metabolite formed over a 60 min incubation of 1: substrate 1 at 1 μM, percentage of initial substrate concentration, ND = not detected
Procedure: (§3) Following the protocols described by Charman et al.,[28]1 was incubated at 37 °C with human, rat, and rhesus monkey liver microsomes. For the determination of intrinsic clearance, the substrate concentration was 1 μM and the protein concentration was 0.4 mg/mL; for qualitative metabolite identification studies, the substrate and protein concentrations were 10 μM and 1 mg/mL, respectively. The reaction was initiated by the addition of an NADPH-regenerating buffer system, and the samples were incubated for up to 60 (for Clint determination) or 180 min (for additional metabolite identification). Samples without the test compound and without NADPH were also incubated and used as controls. The reaction was quenched by protein precipitation with the addition of an equal volume of ice-cold acetonitrile solution (containing diazepam as an internal standard), followed by vortexing and centrifugation for 3 min at 10000 rpm. The supernatant was removed and analyzed by LC/MS. LC/MS analysis was conducted using a Waters Micromass Xevo G2 QTOF MS coupled to a Waters Acquity UPLC. For metabolite identification, a Supelco Ascentis Express Amide column (50 × 2.1 mm, 2.7 μm) was used with an acetonitrile–water gradient (containing 0.05% formic acid), a flow rate of 0.4 mL/min, a gradient cycle time of 6 min, and an injection volume of 5 μL. MS analysis was conducted using positive mode electrospray ionization under MSE acquisition mode, which allows simultaneous acquisition of MS spectra at low and high collision energies. The identity of putative metabolites was confirmed by the accurate mass and a comparison of the retention times and MS/MS fragmentation patterns with authentic metabolites where available. For metabolite quantitation, the method described below for the analysis of plasma samples was used.

[3] = Metabolism in rhesus monkey liver microsomes; assay type: in vitro ADME; conditions: 0.4 mg/mL protein; for microsomal CLint at 1 μM: rhesus monkey, liver microsomes, read-out: CLint of authentic metabolite incubated; for average individual metabolite formed over a 60 min incubation of 1: substrate 1 at 1 μM, percentage of initial substrate concentration, ND = not detected
Procedure: as §3

[4] = Metabolism in rat liver microsomes; assay type: in vitro ADME; conditions: 0.4 mg/mL protein; for microsomal CLint at 1 μM: rat, liver microsomes, read-out: CLint of authentic metabolite incubated; for microsomal CLint at 1 μM / CLint of authentic metabolite incubated: 1 μM substrate, NADPH, 37 °C, 60 min, single incubation; for average individual metabolite formed over a 60 min incubation of 1: substrate 1 at 1 μM, percentage of initial substrate concentration, ND = not detected
Procedure: as §3

[5] = system: P. vivax liver-stage parasites; assay: P. vivax liver-stage in vitro assay, radical cure mode; assay type: cell-based, Plasmodium vivax; conditions: Plasmodium vivax
Procedure: as §1, §2

[6] = system: P. cynomolgi schizont (large forms) and hypnozoite (small forms) liver-stage parasites; assay: P. cynomolgi liver-stage in vitro assay in rhesus monkey hepatocytes; assay type: cell-based; conditions: Plasmodium cynomolgi, Hepatocyte, in Macaca mulatta
Procedure: as §1

[7] = Pharmacokinetics in rats after IV and PO administration; assay type: in vivo, male Sprague–Dawley rats; conditions: for metabolite in urine, percentage of the 1 dose: after IV administration of 1; for dose excreted: male, Sprague-Dawley, rat, urine, after oral administration of 1 at 27 mg/kg, read-out: recovery of metabolite in urine, percentage of the 1 dose
Procedure: Animal studies were conducted using established procedures in accordance with the Australian Code of Practice for the Care and Use of Animals for Scientific Purposes, and the study protocols were reviewed and approved by the Monash Institute of Pharmaceutical Sciences Animal Ethics Committee. The study was conducted in overnight-fasted male Sprague–Dawley rats weighing 266–292 g. Rats had access to water ad libitum throughout the pre- and postdose sampling period, and access to food was reinstated 4 h postdose. Compound 1 was administered intravenously as a 10 min constant rate infusion via an indwelling jugular vein cannula (1 mL per rat, n = 5 rats) and orally by gavage (10 mL/kg per rat, n = 2–3 rats), and samples of arterial blood and total urine were collected up to 24 h postdose. Arterial blood was collected directly into borosilicate vials (at 4 °C) containing heparin. Blood samples were centrifuged, and the supernatant plasma was removed and stored frozen (−80 °C) until analysis by LC-MS. Plasma samples and calibration standards (prepared in blank rat plasma) were processed by protein precipitation with a 2-fold volume of acetonitrile. LC-MS analysis was conducted using a Waters Micromass Quattro Premier triple-quadrupole mass spectrometer coupled to a Waters Acquity UPLC with a Phenomenex C18 Kinetex column (50 × 2.1 mm, 2.7 μm). Elution was achieved using a methanol–water gradient (containing 8.2 mM formic acid and 1.25 mM ammonium formate) with a flow rate of 0.6 mL/min, a gradient cycle time of 6 min, and an injection volume of 2 μL. MS detection was conducted using positive electrospray ionization with multiple reaction monitoring. Transitions (m/z), cone voltages (V), and CID voltages (V) were as follows: 1, 430.26 > 99.93, 40, 20; 2, 416.27 > 99.80, 30, 20; 3, 402.22 > 99.93, 35, 20; 4, 388.23 > 99.86, 35, 20; 5: 374.25 > 72.01, 35, 25; diazepam (285.25 > […], 40, 25) (used as an internal standard). The quantitation range in plasma was typically 1–10000 ng/mL, and the accuracy and precision were within ±10% and <10%, respectively, for each analyte. Urine samples were analyzed using either a 20- or 200-fold dilution with 50% acetonitrile and assayed against calibration standards prepared in the same solvent.

[8] = control drug, read-out: IC50 (hypnozoites)
[9] = control drug, read-out: IC50 (schizonts)
[10] = 1 μM substrate, NADPH, 37 °C, 60 min, single incubation

microsomal CLint at 1 μM [2, 10] [µL/min/mg] | microsomal CLint at 1 μM [3, 10] [µL/min/mg] | average individual metabolite formed over a 60 min incubation of 1 [3] [%] | microsomal CLint at 1 μM [4] [µL/min/mg] | average individual metabolite formed over a 60 min incubation of 1 [4] [%] | SMILES | other results
< 3 | 19 | 20 | 24 | 64 | CCNCCN(CCN(CC)CC)c1cc(OC)c(OC)cc1Br [Compound 3, N-[2-(Ethylamino)ethyl]-N-[2-(diethylamino)ethyl]-2-bromo-4,5-dimethoxyaniline 1,5-Naphthalenedisulfonate] | average individual metabolite formed over a 60 min incubation of 1 [2]: 1.6%; metabolite in urine, percentage of the 1 dose [7]: 1.7%; dose excreted [7]: 3.3%
< 3 | 8 | 15 | 264 |  | CCN(CC)CCN(CCN(CC)CC)c1cc(OC)c(O)cc1Br [Compound 2, N,N-Bis[2-(diethylamino)ethyl]-2-bromo-4-hydroxy-5-methoxyaniline 1,5-Naphthalenedisulfonate] | average individual metabolite formed over a 60 min incubation of 1 [2]: 0.2%; CLint of authentic metabolite incubated [4]: highly unstable

Further lines, the molecule ahead of its results:

SMILES | microsomal CLint at 1 μM [2, 10] [µL/min/mg] | microsomal CLint at 1 μM [3, 10] [µL/min/mg] | average individual metabolite formed over a 60 min incubation of 1 [3] [%] | microsomal CLint at 1 μM [4] [µL/min/mg] | average individual metabolite formed over a 60 min incubation of 1 [4] [%] | other results
CNC(=O)c1ccc(-c2cnc3cnc(C(=O)N(C)c4ccc(Cl)cc4)cn23)cc1 [KDU691, reference compound] |  |  |  |  |  | pIC50 [1, 8]: 7.27; pIC50 [1, 9]: 7.94
CCNCCN(CCN(CC)CC)c1cc(OC)c(O)cc1Br [Compound 4, N-[2-(Ethylamino)ethyl]-N-[2-(diethylamino)ethyl]-2-bromo-4-hydroxy-5-methoxyaniline 1,5-Naphthalenedisulfonate] | < 3 | 12 | 2.4 | 45 | 6.4 | pIC50 ([1]; Plasmodium vivax, n = 3, read-out: IC50 against schizonts): 5.58; pIC50 ([5]; n = 2, read-out: IC50 against schizonts): 4.81; inhibition at 10 µM ([6]; 10 μM, first run, read-out: inhibition of growth of the schizont (large forms)): 70%
Br.Br.Br.CCN(CC)CCN(CCN(CC)CC)c1cc(O)c(OC)cc1Br [Compound 6, N,N-Bis[2-(diethylamino)ethyl]-2-bromo-5-hydroxy-4-methoxyaniline trihydrobromide] |  |  |  |  |  | CLint of authentic metabolite incubated [2, 10]: very unstable; also recorded: highly unstable in all species; CLint of authentic metabolite incubated [3, 10]: very unstable; also recorded: highly unstable in all species; CLint of authentic metabolite incubated [4]: very unstable; also recorded: highly unstable in all species
CC[C@@]1([C@@H]2O[C@@H]([C@H]3O[C@@](O)(CO)[C@H](C)C[C@@H]3C)C[C@@H]2C)CC[C@H]([C@]2(C)CC[C@]3(C[C@H](O)[C@@H](C)[C@@H]([C@@H](C)[C@@H](OC)[C@H](C)C(=O)O)O3)O2)O1 [monensin, reference compound] |  |  |  |  |  | pIC50 [5, 8]: 6.99; pIC50 [5, 9]: 7.91
COc1cc(NC(C)CCCN)c2ncccc2c1 (centres unmarked) [primaquine] |  |  |  |  |  | pIC50 ([6]; read-out: IC50 against the hypnozoite (small forms)): 5.57; pIC50 ([6]; read-out: IC50 against the schizont (large forms)): 5.96
CCNCCN(CCNCC)c1cc(OC)c(OC)cc1Br [Compound 5, N,N-Bis[2-(ethylamino)ethyl]-2-bromo-4,5-dimethoxyaniline 1,5-naphthalenedisulfonate] | 6 | 7.3 | 1.4 | 4.4 | 25 | metabolite in urine, percentage of the 1 dose [7]: 1.2%; dose excreted [7]: 3%
